Laboratory results taken from publication PMC2873862 (Journal of neuroimmunology, 2009).

Tests used:
Experiment in all cases: radioligand displacement
Adrenergic β1 = Adrenergic β1 (Homo sapiens, UniProt P08588); assay type: binding
Adrenergic α1D = Adrenergic α1D (Homo sapiens, UniProt P25100); assay type: binding
Bradykinin B1 = Bradykinin B1 (Homo sapiens, UniProt P46663); assay type: binding; settings: vs [3H]des Arg10 Kallidin; bound from single concentration […]
Leukotriene CysLT1 = Leukotriene CysLT1 (Homo sapiens, UniProt Q9Y271); assay type: binding
Muscarinic M3 = Muscarinic M3 (Homo sapiens, UniProt P20309); assay type: binding
Angiotensin AT1 = Angiotensin AT1 (Homo sapiens, UniProt P30556); assay type: binding
Adenosine A1 = Adenosine A1 (Homo sapiens, UniProt P30542); assay type: binding
Muscarinic M1 = Muscarinic M1 (Homo sapiens, UniProt P11229); assay type: binding
Opiate σ(OP1) = Opiate σ(OP1) (Homo sapiens, UniProt P41143); assay type: binding
Tachykinin NK1 = Tachykinin NK1 (Homo sapiens, UniProt P25103); assay type: binding
Chemokine CCR5 = Chemokine CCR5 (Homo sapiens, UniProt P51681); assay type: binding
Neurotensin NT1 = Neurotensin NT1 (Homo sapiens, UniProt P30989); assay type: binding
Dopamine D2L = Dopamine D2L (Homo sapiens, UniProt P14416); assay type: binding
Somatostatin sst1 = Somatostatin sst1 (Homo sapiens, UniProt P30872)
Endothelin ETA = Endothelin ETA (Homo sapiens, UniProt P25101); assay type: binding
Chemokine CCR1 = Chemokine CCR1 (Homo sapiens, UniProt P32246); assay type: binding
Serotonin 5-HT1_5A = Serotonin 5-HT1_5A (Homo sapiens, UniProt P47898); assay type: binding
Cannabinoid CB2 = Cannabinoid CB2 (Homo sapiens, UniProt P34972); assay type: binding
Serotonin 5-HT1A = Serotonin 5-HT1A (Homo sapiens, UniProt P08908); assay type: binding
Histamine H1 = Histamine H1 (Homo sapiens, UniProt P35367); assay type: binding
Estrogen ERβ = Estrogen ERβ (Homo sapiens, UniProt Q92731)
Dopamine D3 = Dopamine D3 (Homo sapiens, UniProt P35462); assay type: binding
Neuropeptide Y1 = Neuropeptide Y1 (Homo sapiens, UniProt P25929); assay type: binding

Measured: IC50

Sequence of Leukotriene CysLT1 (Q9Y271 whole entry): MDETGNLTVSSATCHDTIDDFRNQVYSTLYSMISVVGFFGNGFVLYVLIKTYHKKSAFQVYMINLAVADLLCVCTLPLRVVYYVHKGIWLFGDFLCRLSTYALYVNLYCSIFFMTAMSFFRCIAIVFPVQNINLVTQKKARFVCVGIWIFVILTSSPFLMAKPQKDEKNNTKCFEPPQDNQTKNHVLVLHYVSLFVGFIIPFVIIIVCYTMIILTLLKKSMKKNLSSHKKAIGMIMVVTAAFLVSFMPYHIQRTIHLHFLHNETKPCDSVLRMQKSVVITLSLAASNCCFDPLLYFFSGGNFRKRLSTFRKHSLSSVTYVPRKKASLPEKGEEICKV
Sequence of Histamine H1 (P35367 whole entry): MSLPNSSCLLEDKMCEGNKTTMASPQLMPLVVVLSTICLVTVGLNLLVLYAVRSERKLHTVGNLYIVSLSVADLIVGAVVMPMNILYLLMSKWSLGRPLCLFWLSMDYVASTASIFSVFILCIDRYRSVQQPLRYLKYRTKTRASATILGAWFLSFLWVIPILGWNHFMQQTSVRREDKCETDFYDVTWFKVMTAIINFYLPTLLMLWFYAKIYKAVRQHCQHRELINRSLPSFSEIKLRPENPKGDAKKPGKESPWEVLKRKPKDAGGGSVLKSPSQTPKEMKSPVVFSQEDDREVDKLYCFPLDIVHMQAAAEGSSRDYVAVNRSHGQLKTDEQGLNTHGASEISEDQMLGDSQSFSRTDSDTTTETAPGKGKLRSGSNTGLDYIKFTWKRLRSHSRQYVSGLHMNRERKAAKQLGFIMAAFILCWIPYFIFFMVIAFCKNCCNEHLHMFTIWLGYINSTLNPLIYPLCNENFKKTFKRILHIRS
Sequence of Cannabinoid CB2 (P34972 whole entry): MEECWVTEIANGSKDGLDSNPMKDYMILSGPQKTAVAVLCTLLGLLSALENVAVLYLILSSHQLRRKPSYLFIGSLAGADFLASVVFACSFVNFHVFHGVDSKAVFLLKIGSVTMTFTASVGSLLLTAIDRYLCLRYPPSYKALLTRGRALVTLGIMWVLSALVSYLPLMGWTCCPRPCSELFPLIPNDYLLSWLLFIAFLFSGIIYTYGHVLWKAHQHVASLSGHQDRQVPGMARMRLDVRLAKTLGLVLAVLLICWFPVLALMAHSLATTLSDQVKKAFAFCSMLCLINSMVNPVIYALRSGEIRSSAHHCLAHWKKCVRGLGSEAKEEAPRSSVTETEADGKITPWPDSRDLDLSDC
Sequence of Neurotensin NT1 (P30989 whole entry): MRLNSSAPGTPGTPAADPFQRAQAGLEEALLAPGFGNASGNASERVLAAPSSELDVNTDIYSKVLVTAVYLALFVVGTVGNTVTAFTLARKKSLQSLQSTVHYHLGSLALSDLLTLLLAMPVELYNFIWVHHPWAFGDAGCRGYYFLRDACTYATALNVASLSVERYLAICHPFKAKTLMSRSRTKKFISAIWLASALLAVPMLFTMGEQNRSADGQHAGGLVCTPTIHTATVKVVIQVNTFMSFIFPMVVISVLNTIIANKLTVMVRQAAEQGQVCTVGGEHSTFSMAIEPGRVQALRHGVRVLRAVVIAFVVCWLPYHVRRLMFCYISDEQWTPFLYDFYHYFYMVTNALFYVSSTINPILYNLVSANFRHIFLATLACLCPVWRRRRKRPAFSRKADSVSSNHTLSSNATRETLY
Sequence of Chemokine CCR5 (P51681 whole entry): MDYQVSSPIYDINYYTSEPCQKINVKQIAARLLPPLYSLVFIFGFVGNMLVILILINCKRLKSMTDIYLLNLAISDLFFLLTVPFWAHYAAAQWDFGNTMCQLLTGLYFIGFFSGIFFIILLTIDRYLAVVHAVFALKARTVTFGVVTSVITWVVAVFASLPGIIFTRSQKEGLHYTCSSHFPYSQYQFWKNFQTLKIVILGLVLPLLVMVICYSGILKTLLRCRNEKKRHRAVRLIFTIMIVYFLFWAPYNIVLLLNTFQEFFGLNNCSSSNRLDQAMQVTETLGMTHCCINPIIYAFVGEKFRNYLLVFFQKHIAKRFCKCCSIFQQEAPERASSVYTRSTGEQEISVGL
Sequence of Neuropeptide Y1 (P25929 whole entry): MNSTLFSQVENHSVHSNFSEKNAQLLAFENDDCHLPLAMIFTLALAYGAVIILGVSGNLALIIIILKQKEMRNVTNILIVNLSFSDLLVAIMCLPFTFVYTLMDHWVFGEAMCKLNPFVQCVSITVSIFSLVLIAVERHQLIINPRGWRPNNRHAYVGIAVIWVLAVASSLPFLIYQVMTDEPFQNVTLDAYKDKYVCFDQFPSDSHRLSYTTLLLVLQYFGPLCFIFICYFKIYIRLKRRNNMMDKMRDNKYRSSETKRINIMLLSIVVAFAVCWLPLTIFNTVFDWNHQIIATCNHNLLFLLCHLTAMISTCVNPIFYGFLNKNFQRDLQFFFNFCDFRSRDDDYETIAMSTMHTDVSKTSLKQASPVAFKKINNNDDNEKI
Sequence of Adrenergic β1 (P08588 whole entry): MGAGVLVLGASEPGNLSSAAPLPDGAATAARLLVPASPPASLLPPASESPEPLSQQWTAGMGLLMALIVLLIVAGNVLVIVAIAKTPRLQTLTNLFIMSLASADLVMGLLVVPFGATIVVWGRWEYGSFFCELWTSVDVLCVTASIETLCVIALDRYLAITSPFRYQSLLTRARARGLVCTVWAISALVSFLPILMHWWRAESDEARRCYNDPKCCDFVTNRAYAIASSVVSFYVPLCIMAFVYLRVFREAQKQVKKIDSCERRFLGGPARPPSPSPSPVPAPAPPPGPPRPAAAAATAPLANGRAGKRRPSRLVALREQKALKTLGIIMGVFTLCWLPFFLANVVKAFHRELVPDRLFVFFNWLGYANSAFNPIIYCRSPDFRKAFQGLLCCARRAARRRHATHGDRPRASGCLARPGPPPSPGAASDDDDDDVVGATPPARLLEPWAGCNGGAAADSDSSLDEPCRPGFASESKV
Sequence of Serotonin 5-HT1_5A (P47898 whole entry): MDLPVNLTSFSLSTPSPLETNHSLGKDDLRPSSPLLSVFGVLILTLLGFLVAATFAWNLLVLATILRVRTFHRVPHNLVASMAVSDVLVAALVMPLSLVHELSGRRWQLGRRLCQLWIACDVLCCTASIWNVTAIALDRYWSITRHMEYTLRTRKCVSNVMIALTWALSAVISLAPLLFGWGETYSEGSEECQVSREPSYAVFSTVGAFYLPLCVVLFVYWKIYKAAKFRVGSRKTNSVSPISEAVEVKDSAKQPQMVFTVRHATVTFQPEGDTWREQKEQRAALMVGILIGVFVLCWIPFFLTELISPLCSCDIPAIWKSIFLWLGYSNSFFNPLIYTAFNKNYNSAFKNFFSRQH
Sequence of Tachykinin NK1 (P25103 whole entry): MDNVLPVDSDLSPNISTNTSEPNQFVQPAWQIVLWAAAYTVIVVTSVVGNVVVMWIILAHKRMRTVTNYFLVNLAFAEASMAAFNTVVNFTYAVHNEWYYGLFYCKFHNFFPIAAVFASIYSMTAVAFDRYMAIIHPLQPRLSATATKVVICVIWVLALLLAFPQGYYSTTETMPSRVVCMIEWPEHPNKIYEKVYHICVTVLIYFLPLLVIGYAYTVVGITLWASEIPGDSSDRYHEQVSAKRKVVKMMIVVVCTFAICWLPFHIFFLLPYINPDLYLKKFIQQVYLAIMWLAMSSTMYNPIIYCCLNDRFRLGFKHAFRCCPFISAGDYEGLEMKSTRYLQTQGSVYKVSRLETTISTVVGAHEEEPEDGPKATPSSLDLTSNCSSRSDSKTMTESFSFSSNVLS
Sequence of Bradykinin B1 (P46663 whole entry): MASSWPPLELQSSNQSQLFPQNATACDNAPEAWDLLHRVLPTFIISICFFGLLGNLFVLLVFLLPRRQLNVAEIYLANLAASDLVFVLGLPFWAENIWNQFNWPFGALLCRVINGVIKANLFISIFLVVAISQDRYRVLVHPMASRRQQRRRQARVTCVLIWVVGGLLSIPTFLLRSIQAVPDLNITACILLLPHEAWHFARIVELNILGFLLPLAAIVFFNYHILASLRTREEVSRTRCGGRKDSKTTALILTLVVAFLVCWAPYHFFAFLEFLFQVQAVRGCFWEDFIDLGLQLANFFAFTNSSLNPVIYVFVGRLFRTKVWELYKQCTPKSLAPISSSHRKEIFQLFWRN
Sequence of Adrenergic α1D (P25100 whole entry): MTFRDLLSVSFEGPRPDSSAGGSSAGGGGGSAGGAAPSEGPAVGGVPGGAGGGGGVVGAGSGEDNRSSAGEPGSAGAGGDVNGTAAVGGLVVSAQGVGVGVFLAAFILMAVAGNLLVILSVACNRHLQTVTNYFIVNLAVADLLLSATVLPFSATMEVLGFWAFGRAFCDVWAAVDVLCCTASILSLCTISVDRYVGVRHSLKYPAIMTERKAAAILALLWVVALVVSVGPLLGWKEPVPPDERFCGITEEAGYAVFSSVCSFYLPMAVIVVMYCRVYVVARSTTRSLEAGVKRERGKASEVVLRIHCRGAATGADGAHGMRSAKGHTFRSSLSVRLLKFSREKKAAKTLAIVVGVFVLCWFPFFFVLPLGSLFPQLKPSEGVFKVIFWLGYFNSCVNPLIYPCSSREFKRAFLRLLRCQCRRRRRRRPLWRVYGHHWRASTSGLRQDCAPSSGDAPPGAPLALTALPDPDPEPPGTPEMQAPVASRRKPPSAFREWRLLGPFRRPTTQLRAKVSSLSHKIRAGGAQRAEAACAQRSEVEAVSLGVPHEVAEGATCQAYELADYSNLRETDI
Sequence of Serotonin 5-HT1A (P08908 whole entry): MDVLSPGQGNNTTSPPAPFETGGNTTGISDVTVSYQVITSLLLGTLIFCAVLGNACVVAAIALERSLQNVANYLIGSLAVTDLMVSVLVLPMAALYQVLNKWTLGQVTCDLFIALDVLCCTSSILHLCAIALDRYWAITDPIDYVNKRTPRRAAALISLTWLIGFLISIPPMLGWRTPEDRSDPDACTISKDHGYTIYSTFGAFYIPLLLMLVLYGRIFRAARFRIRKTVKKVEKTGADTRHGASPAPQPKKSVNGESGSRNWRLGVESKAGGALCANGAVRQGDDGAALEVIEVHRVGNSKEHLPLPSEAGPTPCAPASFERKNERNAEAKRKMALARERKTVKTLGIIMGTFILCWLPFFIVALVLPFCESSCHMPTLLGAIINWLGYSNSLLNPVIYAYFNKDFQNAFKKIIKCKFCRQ

CC(=O)c1ccc2c(c1)C1C=CCC1C(c1cc3c(cc1Br)OCO3)N2 (centres unmarked) [G-1, 1-[4-(6-bromobenzo[1,3]dioxol-5-yl)-3a,4,5,9b-tetrahydro-3H-cyclopenta[c]quinolin-8-yl]-ethanone]
> 10 µM: all assays above
